Columns and labels:
ALOMY [1] = experiment: Post-emergence herbicidal action against ALOMY; type: in vivo, Alopecurus myosuroides; details: dosage 20 g/ha, visual assessment about 3 weeks after treatment vs untreated controls
Procedure, shortened: (§1)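 Greenhouse plants in sandy loam were sprayed at the one-leaf stage, 2 to 3 weeks after sowing, with WP or EC formulations as aqueous suspension or emulsion (600 to 800 l/ha water, 0.2% wetting agent). Visual damage was scored about 3 weeks later versus untreated controls, 0% = like control, 100% = dead.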

VIOTR [2] = experiment: Pre-emergence herbicidal action against VIOTR; type: in vivo, Viola tricolor
Procedure, shortened: (§2)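 Pre-emergence soil-surface spray of formulated compound (WP or EC; 600 to 800 l/ha; 0.2% wetting agent) over seeds sown in sandy loam. After 3 weeks under greenhouse conditions, damage is estimated visually in percent against untreated plants.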

ECHCG [3] = experiment: Post-emergence herbicidal action against ECHCG; type: in vivo, Echinochloa crus-galli
Procedure, shortened: as §1

ECHCG [4] = experiment: Pre-emergence herbicidal action against ECHCG; type: in vivo, Echinochloa crus-galli
Procedure, shortened: as §2

DIGSA [5] = experiment: Post-emergence herbicidal action against DIGSA; type: in vivo, Digitaria sanguinalis; details: for Post-emergence action against DIGSA: 20 g/ha
Procedure, shortened: as §1

SETVI [6] = experiment: Post-emergence herbicidal action against SETVI; type: in vivo, Setaria viridis
Procedure, shortened: as §1

HORMU [7] = experiment: Pre-emergence herbicidal action against HORMU; type: in vivo, Hordeum murinum; details: 80 g/ha, pre-emergence
Procedure, shortened: as §2

STEME [8] = experiment: Pre-emergence herbicidal action against STEME; type: in vivo, Stellaria media
Procedure, shortened: as §2

MATIN [9] = experiment: Pre-emergence herbicidal action against MATIN; type: in vivo, Matricaria inodora
Procedure, shortened: as §2

DIGSA [10] = experiment: Pre-emergence herbicidal action against DIGSA; type: in vivo, Digitaria sanguinalis
Procedure, shortened: as §2

STEME [11] = experiment: Post-emergence herbicidal action against STEME; type: in vivo, Stellaria media
Procedure, shortened: as §1

PHBPU [12] = experiment: Post-emergence herbicidal action against PHBPU; type: in vivo, Pharbitis purpurea
Procedure, shortened: as §1

VERPE = experiment: Post-emergence herbicidal action against VERPE; type: in vivo, Veronica persica; details: 20 g/ha
Procedure, shortened: as §1

ABUTH [13] = experiment: Pre-emergence herbicidal action against ABUTH; type: in vivo, Abutilon theophrasti
Procedure, shortened: as §2

PHBPU [14] = experiment: Pre-emergence herbicidal action against PHBPU; type: in vivo, Pharbitis purpurea; details: dosage 80 g/ha
Procedure, shortened: as §2

HORMU [15] = experiment: Post-emergence herbicidal action against HORMU; type: in vivo, Hordeum murinum; details: dosage 20 g/ha
Procedure, shortened: as §1

MATIN [16] = experiment: Post-emergence herbicidal action against MATIN; type: in vivo, Matricaria inodora
Procedure, shortened: as §1

AMARE [17] = experiment: Pre-emergence herbicidal action against AMARE; type: in vivo, Amaranthus retroflexus
Procedure, shortened: as §2

AMARE [18] = experiment: Post-emergence herbicidal action against AMARE; type: in vivo, Amaranthus retroflexus; details: 20 g/ha, visual assessment about 3 weeks after treatment, 100% = plants have died, 0% = like control plants
Procedure, shortened: as §1

ALOMY [19] = experiment: Pre-emergence herbicidal action against ALOMY; type: in vivo, Alopecurus myosuroides; details: 80 g/ha, pre-emergence, scored visually after 3 weeks vs untreated controls (100% = plants have died, 0% = like control plants)
Procedure, shortened: as §2

VIOTR [20] = experiment: Post-emergence herbicidal action against VIOTR; type: in vivo, Viola tricolor
Procedure, shortened: as §1

POLCO [21] = experiment: Pre-emergence herbicidal action against POLCO; type: in vivo, Polygonum convolvulus; details: dosage 80 g/ha
Procedure, shortened: as §2

AVEFA [22] = experiment: Pre-emergence herbicidal action against AVEFA; type: in vivo, Avena fatua; details: 80 g/ha, pre-emergence
Procedure, shortened: as §2

LOLRI = experiment: Pre-emergence herbicidal action against LOLRI; type: in vivo, Lolium rigidum; details: 80 g/ha
Procedure, shortened: as §2

SETVI [23] = experiment: Pre-emergence herbicidal action against SETVI; type: in vivo, Setaria viridis; details: dosage 80 g/ha
Procedure, shortened: as §2

AVEFA [24] = experiment: Post-emergence herbicidal action against AVEFA; type: in vivo, Avena fatua; details: visual assessment about 3 weeks after treatment, 100% = plants have died, 0% = like control plants
Procedure, shortened: as §1

ABUTH [25] = experiment: Post-emergence herbicidal action against ABUTH; type: in vivo, Abutilon theophrasti; details: visual assessment about 3 weeks after treatment vs untreated controls
Procedure, shortened: as §1

POLCO [26] = experiment: Post-emergence herbicidal action against POLCO; type: in vivo, Polygonum convolvulus; details: dosage 20 g/ha
Procedure: Seeds of monocotyledonous and dicotyledonous weed and crop plants are laid out in sandy loam soil in wood-fiber pots, covered with soil and cultivated in a greenhouse under good growth conditions. 2 to 3 weeks after sowing, the test plants are treated at the one-leaf stage. The compounds of the invention, formulated in the form of wettable powders (WP) or as emulsion concentrates (EC), are then sprayed onto the green parts of the plants in the form of an aqueous suspension or emulsion at a water application rate equivalent to 600 to 800 l/ha, with addition of 0.2% wetting agent. After the test plants have been left to stand in the greenhouse under optimal growth conditions for about 3 weeks, the action of the preparations is assessed visually in comparison to untreated controls (herbicidal action in percent (%): 100% activity=the plants have died, 0% activity=like control plants). […] The tables below illustrate, in an illustrative manner, the post-emergence herbicidal action of the compounds of the invention, the herbicidal activity being stated in percent.

[27] = 80 g/ha, scored visually after 3 weeks vs untreated controls (100% = plants have died, 0% = like control plants)

## CCNC(=O)c1c(C(F)(F)F)ccc(C(=O)Nc2nnco2)c1Cl [Example 5-117]
ALOMY [1]
  Post-emergence action against ALOMY in %: 80%
VIOTR [2]; dosage 20 g/ha
  Pre-emergence action against VIOTR in %: 100%
VIOTR [2]; dosage 80 g/ha
  Pre-emergence action against VIOTR in %: 100%
ECHCG [3]; dosage 5 g/ha
  Post-emergence action against ECHCG in %: 80%
ECHCG [3]; dosage 20 g/ha
  Post-emergence action against ECHCG in %: 80%
ECHCG [4]; 20 g/ha
  Pre-emergence action against ECHCG in %: 80%
ECHCG [4]; 80 g/ha
  Pre-emergence action against ECHCG in %: 100%
DIGSA [5]; 5 g/ha
  Post-emergence action against DIGSA in %: 90%
DIGSA [5]
  Post-emergence action against DIGSA: 90%
SETVI [6]; dosage 5 g/ha
  Post-emergence action against SETVI in %: 100%
SETVI [6]; dosage 20 g/ha
  Post-emergence action against SETVI in %: 100%
HORMU [7]
  Pre-emergence action against HORMU in %: 80%
STEME [8]; dosage 20 g/ha
  Pre-emergence action against STEME in %: 90%
STEME [8]; dosage 80 g/ha
  Pre-emergence action against STEME in %: 90%
MATIN [9]; dosage 20 g/ha
  Pre-emergence action against MATIN in %: 90%
MATIN [9]; dosage 80 g/ha
  Pre-emergence action against MATIN in %: 100%
DIGSA [10]; dosage 20 g/ha
  Pre-emergence action against DIGSA in %: 100%
DIGSA [10]; dosage 80 g/ha
  Pre-emergence action against DIGSA in %: 100%
STEME [11]; 20 g/ha
  Post-emergence action against STEME in %: 100%
STEME [11]; dosage 5 g/ha
  Post-emergence action against STEME in %: 100%
PHBPU [12]; dosage 5 g/ha
  Post-emergence action against PHBPU in %: 80%
PHBPU [12]; dosage 20 g/ha
  Post-emergence action against PHBPU in %: 90%
VERPE
  Post-emergence action against VERPE in %: 80%
ABUTH [13]; [27]
  Pre-emergence action against ABUTH (herbicidal activity): 100%
ABUTH [13]; dosage 20 g/ha, scored visually after 3 weeks vs untreated controls, 100% = plants have died, 0% = like control plants
  Pre-emergence action against ABUTH (herbicidal activity in percent): 100%
PHBPU [14]
  Pre-emergence action against PHBPU in %: 100%
HORMU [15]
  Post-emergence action against HORMU in %: 80%
MATIN [16]; dosage 5 g/ha
  Post-emergence action against MATIN in %: 80%
MATIN [16]; dosage 20 g/ha
  Post-emergence action against MATIN in %: 90%
AMARE [17]; 20 g/ha, scored visually after 3 weeks vs untreated controls, 100% = plants have died, 0% = like control plants
  Pre-emergence action against AMARE in %: 90%
AMARE [17]; [27]
  Pre-emergence action against AMARE in %: 90%
AMARE [18]
  Post-emergence action at 20 g/ha against AMARE in %: 100%
ALOMY [19]
  Pre-emergence action against ALOMY (herbicidal activity): 90%
VIOTR [20]; 5 g/ha
  Post-emergence action against VIOTR in %: 90%
VIOTR [20]; 20 g/ha
  Post-emergence action against VIOTR in %: 100%
POLCO [21]
  Pre-emergence action against POLCO in %: 80%
AVEFA [22]
  Pre-emergence action against AVEFA in %: 90%
LOLRI
  Pre-emergence action against LOLRI in %: 80%
SETVI [23]
  Pre-emergence action against SETVI in %: 90%
AVEFA [24]; 5 g/ha
  Post-emergence action at 5 g/ha against AVEFA in %: 80%
AVEFA [24]; 20 g/ha
  Post-emergence action at 20 g/ha against AVEFA in %: 90%
ABUTH [25]; dosage 5 g/ha
  Post-emergence action against ABUTH in %: 80%
ABUTH [25]; dosage 20 g/ha
  Post-emergence action against ABUTH in %: 90%

## CCNC(=O)c1c(Br)ccc(C(=O)Nc2nnc(C)o2)c1Cl [Example 6-141]
ALOMY [1]
  Post-emergence action against ALOMY in %: 90%
ECHCG [3]; dosage 20 g/ha
  Post-emergence action against ECHCG in %: 80%
ECHCG [4]; 80 g/ha
  Pre-emergence action against ECHCG in %: 90%
DIGSA [5]
  Post-emergence action against DIGSA: 80%
MATIN [9]; dosage 80 g/ha
  Pre-emergence action against MATIN in %: 80%
POLCO [26]
  Post-emergence action against POLCO in %: 80%
DIGSA [10]; dosage 20 g/ha
  Pre-emergence action against DIGSA in %: 90%
DIGSA [10]; dosage 80 g/ha
  Pre-emergence action against DIGSA in %: 100%
AMARE [17]; [27]
  Pre-emergence action against AMARE in %: 100%
AMARE [18]
  Post-emergence action at 20 g/ha against AMARE in %: 100%
ALOMY [19]
  Pre-emergence action against ALOMY (herbicidal activity): 90%
VIOTR [20]; 20 g/ha
  Post-emergence action against VIOTR in %: 80%
AVEFA [22]
  Pre-emergence action against AVEFA in %: 80%
ABUTH [25]; dosage 20 g/ha
  Post-emergence action against ABUTH in %: 80%
